# Experimental data taken from the supplement of paper PMC11208160.
# Experiment: recombinant UMI read abundance after kanamycin selection (control-corrected) (log10(CPM+1)); higher = more efficient recombination; extreme values may be limits of the assay; sequences stand for … in AGTGCAGAGAAAATCGGCCAGTTTTCTCTGCCTGCAGTCCGCATGCCGTGGGACCCCTTGGGTTCTAACCTGTTGCCTAGATTTATGCAGCGGACTGCCTTTCTCCCAAAGTGATAAACCGG…AGGTTGGTTTCACT; site = the 11-nt donor
# Outline: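 In Escherichia coli, a pool of donor and donor-binding-loop pairs, each with a 12-nt UMI, was tested for the IS621 bridge recombinase. Plating was on IPTG (0.07 mM) plus kanamycin, or without selection, in two replicates. Recombinant UMIs were amplified by PCR across the donor–target junction and sequenced, and counts were reported as log10(CPM+1) after averaging and control-derived scaling.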
# 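Further: IS621 bridge recombinase in Escherichia coli cells against a fixed T5 target plasmid.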
row,Sequence,recombinant UMI read abundance (log10)
1,ACTAGAACATGGACCGGTTTTCCCGGTAATCCGTATTTGAA (site ACTAGAACTAT),0
2,ACTAGAACATGGACCGGTTTTCCCGGTAATCCGTATTTGAA (site ACTAGAACTCT),0
3,ACTAGAACATGGACCGGTTTTCCCGGTAATCCGTATTTGAA (site ACTAGAACTGT),0
4,ACTAGAACATGGACCGGTTTTCCCGGTAATCCGTATTTGAA (site ACTAGAACTTT),1.45
5,ACTAGAACATGGACCGGTTTTCCCGGTAATCCGTATTTGAC (site ACTAGAACTAT),0.00676
6,ACTAGAACATGGACCGGTTTTCCCGGTAATCCGTATTTGAC (site ACTAGAACTCT),0.0218
7,ACTAGAACATGGACCGGTTTTCCCGGTAATCCGTATTTGAC (site ACTAGAACTGT),2.13
8,ACTAGAACATGGACCGGTTTTCCCGGTAATCCGTATTTGAC (site ACTAGAACTTT),0.322
9,ACTAGAACATGGACCGGTTTTCCCGGTAATCCGTATTTGAT (site ACTAGAACTAT),1.24
10,ACTAGAACATGGACCGGTTTTCCCGGTAATCCGTATTTGAT (site ACTAGAACTCT),0.0111
11,ACTAGAACATGGACCGGTTTTCCCGGTAATCCGTATTTGAT (site ACTAGAACTGT),0
12,ACTAGAACATGGACCGGTTTTCCCGGTAATCCGTATTTGAT (site ACTAGAACTTT),0.0117
13,ACTAGATCATGGACCGGTTTTCCCGGTAATCCGTATTTGAG (site ACTAGAACTCT),0.00628
14,ACTAGATCATGGACCGGTTTTCCCGGTAATCCGTATTTGAG (site ACTAGACCTCT),0.0156
15,ACTAGATCATGGACCGGTTTTCCCGGTAATCCGTATTTGAG (site ACTAGAGCTCT),0.00838
16,ACTAGATCATGGACCGGTTTTCCCGGTAATCCGTATTTGAG (site ACTAGATCTCT),2.52
17,ACTAGTACATGGACCGGTTTTCCCGGTAATCCGTATTTGAG (site ACTAGAACTCT),0.692
18,ACTAGTACATGGACCGGTTTTCCCGGTAATCCGTATTTGAG (site ACTAGCACTCT),0.0245
19,ACTAGTACATGGACCGGTTTTCCCGGTAATCCGTATTTGAG (site ACTAGGACTCT),0.0174
20,ACTAGTACATGGACCGGTTTTCCCGGTAATCCGTATTTGAG (site ACTAGTACTCT),1.35
21,ACTAGTGCATGGACCGGTTTTCCCGGTAATCCGTATTTGGG (site ACTAGTGCTAC),0.0186
22,ACTAGTGCATGGACCGGTTTTCCCGGTAATCCGTATTTGGG (site ACTAGTGCTCC),0.376
23,ACTAGTGCATGGACCGGTTTTCCCGGTAATCCGTATTTGGG (site ACTAGTGCTGC),0
24,ACTAGTGCATGGACCGGTTTTCCCGGTAATCCGTATTTGGG (site ACTAGTGCTTC),0.021
25,ACTAGTGCATGGACCGGTTTTCCCGGTAATCCGTATTTGTT (site ACTAGTGCTAA),1.35
26,ACTAGTGCATGGACCGGTTTTCCCGGTAATCCGTATTTGTT (site ACTAGTGCTAC),0.00478

row,Sequence,recombinant UMI read abundance (log10)
1,ACTAGTGCATGGACCGGTTTTCCCGGTAATCCGTATTTGTT (site ACTAGTGCTAG),1.16
2,ACTAGTGCATGGACCGGTTTTCCCGGTAATCCGTATTTGTT (site ACTAGTGCTAT),0.242
3,ACTATAACATGGACCGGTTTTCCCGGTAATCCGTATTTGAG (site ACTAAAACTCT),0.00383
4,ACTATAACATGGACCGGTTTTCCCGGTAATCCGTATTTGAG (site ACTACAACTCT),0.348
5,ACTATAACATGGACCGGTTTTCCCGGTAATCCGTATTTGAG (site ACTAGAACTCT),0.395
6,ACTATAACATGGACCGGTTTTCCCGGTAATCCGTATTTGAG (site ACTATAACTCT),1.72
7,ACTATACCATGGACCGGTTTTCCCGGTAATCCGTATTTGTA (site ACTATACCTTA),0.0158
8,ACTATTGCATGGACCGGTTTTCCCGGTAATCCGTATTTGGT (site ACTAATGCTAC),0.108
9,ACTATTGCATGGACCGGTTTTCCCGGTAATCCGTATTTGGT (site ACTACTGCTAC),0.0131
10,ACTATTGCATGGACCGGTTTTCCCGGTAATCCGTATTTGGT (site ACTAGTGCTAC),0.023
11,ACTATTGCATGGACCGGTTTTCCCGGTAATCCGTATTTGGT (site ACTATTGCTAC),1.91
12,ACTCAAGCATGGACCGGTTTTCCCGGTAATCCGTATTTGCA (site ACTCAAGCTTG),2.26
13,ACTCAATCATGGACCGGTTTTCCCGGTAATCCGTATTTGAG (site ACTCAATCTCT),1.69
14,ACTCCAACATGGACCGGTTTTCCCGGTAATCCGTATTTGTC (site ACTCCAACTGA),1.34
15,ACTCCAGCATGGACCGGTTTTCCCGGTAATCCGTATTTGAT (site ACTCCAGCTAT),2.13
16,ACTCGCCCATGGACCGGTTTTCCCGGTAATCCGTATTTGTT (site ACTCGCCCTAA),1.08
17,ACTCGTGCATGGACCGGTTTTCCCGGTAATCCGTATTTGGT (site ACTAGTGCTAC),0.43
18,ACTCGTGCATGGACCGGTTTTCCCGGTAATCCGTATTTGGT (site ACTCGTGCTAC),1.07
19,ACTCGTGCATGGACCGGTTTTCCCGGTAATCCGTATTTGGT (site ACTGGTGCTAC),0.222
20,ACTCGTGCATGGACCGGTTTTCCCGGTAATCCGTATTTGGT (site ACTTGTGCTAC),0.839
21,ACTCTCCCATGGACCGGTTTTCCCGGTAATCCGTATTTGAT (site ACTCTCCCTAT),0.628
22,ACTCTCTCATGGACCGGTTTTCCCGGTAATCCGTATTTGCA (site ACTCTCTCTTG),3.19
23,ACTGATGCATGGACCGGTTTTCCCGGTAATCCGTATTTGGC (site ACTGATGCTGC),1.81
24,ACTGCTACATGGACCGGTTTTCCCGGTAATCCGTATTTGAA (site ACTGCTACTTT),0.749
25,ACTGGTGCATGGACCGGTTTTCCCGGTAATCCGTATTTGGT (site ACTAGTGCTAC),1
26,ACTGGTGCATGGACCGGTTTTCCCGGTAATCCGTATTTGGT (site ACTCGTGCTAC),0.414
